Measurements reported in ChEMBL document CHEMBL1145283, “3-hydroxymethyl-7-(N-substituted aminosulfonyl)-1,2,3,4-tetrahydroisoquinoline inhibitors of phenylethanolamine N-methyltransferase that display remarkable potency and selectivity” (J Med Chem, 2005).

target: T1, Adrenergic receptor alpha-2 (Rattus norvegicus, UniProt P22086+P19328+P22909); experiment: In vitro inhibition of [3H]clonidine from alpha-2 adrenergic receptor of rat cortex
T1 sequence (P22086 whole entry): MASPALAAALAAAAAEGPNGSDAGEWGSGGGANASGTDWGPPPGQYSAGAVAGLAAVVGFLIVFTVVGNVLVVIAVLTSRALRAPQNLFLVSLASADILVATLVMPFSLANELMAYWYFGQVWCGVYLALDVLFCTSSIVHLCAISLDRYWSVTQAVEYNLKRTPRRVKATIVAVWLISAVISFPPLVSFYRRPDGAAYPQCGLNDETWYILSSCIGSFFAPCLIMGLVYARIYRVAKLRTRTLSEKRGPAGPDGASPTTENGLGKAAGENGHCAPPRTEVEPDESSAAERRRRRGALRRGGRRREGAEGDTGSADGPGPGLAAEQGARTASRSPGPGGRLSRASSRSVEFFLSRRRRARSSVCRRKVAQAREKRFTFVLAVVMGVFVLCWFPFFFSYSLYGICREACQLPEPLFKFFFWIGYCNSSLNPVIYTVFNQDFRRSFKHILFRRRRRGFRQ
T1 sequence (P19328 whole entry): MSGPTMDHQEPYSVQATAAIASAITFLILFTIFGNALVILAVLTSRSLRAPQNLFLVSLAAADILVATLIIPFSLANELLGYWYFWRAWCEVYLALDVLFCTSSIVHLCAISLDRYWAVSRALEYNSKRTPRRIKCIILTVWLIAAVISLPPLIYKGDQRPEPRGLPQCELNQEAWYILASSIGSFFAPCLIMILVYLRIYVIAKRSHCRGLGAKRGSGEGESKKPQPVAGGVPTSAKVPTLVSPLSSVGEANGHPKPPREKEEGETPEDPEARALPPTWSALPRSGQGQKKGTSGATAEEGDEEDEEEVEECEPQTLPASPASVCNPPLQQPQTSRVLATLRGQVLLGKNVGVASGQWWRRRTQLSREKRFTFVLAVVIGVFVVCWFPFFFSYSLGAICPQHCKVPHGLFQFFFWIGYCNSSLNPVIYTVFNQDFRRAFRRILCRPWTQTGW
T1 sequence (P22909 whole entry): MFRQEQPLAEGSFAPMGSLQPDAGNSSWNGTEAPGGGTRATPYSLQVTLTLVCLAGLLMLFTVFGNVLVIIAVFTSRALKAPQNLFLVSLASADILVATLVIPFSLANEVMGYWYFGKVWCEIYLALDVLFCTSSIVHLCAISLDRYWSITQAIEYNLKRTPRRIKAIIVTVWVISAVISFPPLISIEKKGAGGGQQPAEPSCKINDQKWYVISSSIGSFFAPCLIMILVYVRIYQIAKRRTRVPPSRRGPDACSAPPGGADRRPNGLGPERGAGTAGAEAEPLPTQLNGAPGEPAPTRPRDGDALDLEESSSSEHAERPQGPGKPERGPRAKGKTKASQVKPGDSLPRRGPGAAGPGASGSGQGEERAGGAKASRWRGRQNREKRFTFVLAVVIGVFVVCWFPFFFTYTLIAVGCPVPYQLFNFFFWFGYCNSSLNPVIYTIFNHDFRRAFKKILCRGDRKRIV

SMILES | Ki [µM]
CCCNS(=O)(=O)c1ccc2c(c1)CNC(CO)C2 (stereo not given) | 230
O=S(=O)(Nc1ccc(Cl)cc1)c1ccc2c(c1)CNC(CO)C2 (stereo not given) | 53
O=S(=O)(c1ccc2c(c1)CNC(CO)C2)N1CCSCC1 (stereo not given) | 320

Further lines, results first:

Ki [µM] | SMILES
210 | CCNS(=O)(=O)c1ccc2c(c1)CNC(CO)C2 (stereo not given)
340 | O=S(=O)(NCC(F)(F)F)c1ccc2c(c1)CNC(CO)C2 (stereo not given)
